In patent US7652005B2, “Tricyclic δ-opioid modulators” (Janssen Pharmaceutica N.V., priority 2004, dated 2010) one finds Ki data, which are given here for 32 compounds.

Each structure is given as a SMILES string.

One assay concerns the target T1, delta opioid receptor (Rattus norvegicus, UniProt P33533).
T1 construct: from tissue; host or cells: rat forebrain homogenate (male Wistar rats), particulate membrane preparation
In words: Rat Brain Delta Opioid Receptor Binding Assay. The note with it: rat forebrain membrane preparation; [3H]DPDPE or [3H]naltrindole, 25° C., 2.5 h.

The target of the next assay is T2, mu opioid receptor (Rattus norvegicus, UniProt P33535).
T2 construct: Following incubation with the mu selective peptide ligand, ˜0.8 nM [^3H]DAMGO; from tissue; host or cells: rat forebrain homogenate (male Wistar rats), particulate membrane preparation
T2 sequence (P33535 whole entry): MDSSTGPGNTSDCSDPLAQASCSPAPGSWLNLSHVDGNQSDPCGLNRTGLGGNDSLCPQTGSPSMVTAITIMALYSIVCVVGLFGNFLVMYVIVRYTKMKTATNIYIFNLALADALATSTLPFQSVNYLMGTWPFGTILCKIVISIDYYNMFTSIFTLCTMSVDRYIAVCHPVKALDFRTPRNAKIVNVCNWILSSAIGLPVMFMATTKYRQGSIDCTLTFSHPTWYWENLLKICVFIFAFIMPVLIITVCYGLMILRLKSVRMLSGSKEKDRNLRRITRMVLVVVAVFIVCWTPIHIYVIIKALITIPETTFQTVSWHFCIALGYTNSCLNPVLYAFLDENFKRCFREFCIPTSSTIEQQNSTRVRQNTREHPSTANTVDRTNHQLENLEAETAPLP
The assay can be described thus: Rat Brain Mu Opioid Receptor Binding Assay. The note with it: rat forebrain membrane preparation; [3H]DAMGO, 25° C., 2.5 h.

T1 sequence (P33533 whole entry): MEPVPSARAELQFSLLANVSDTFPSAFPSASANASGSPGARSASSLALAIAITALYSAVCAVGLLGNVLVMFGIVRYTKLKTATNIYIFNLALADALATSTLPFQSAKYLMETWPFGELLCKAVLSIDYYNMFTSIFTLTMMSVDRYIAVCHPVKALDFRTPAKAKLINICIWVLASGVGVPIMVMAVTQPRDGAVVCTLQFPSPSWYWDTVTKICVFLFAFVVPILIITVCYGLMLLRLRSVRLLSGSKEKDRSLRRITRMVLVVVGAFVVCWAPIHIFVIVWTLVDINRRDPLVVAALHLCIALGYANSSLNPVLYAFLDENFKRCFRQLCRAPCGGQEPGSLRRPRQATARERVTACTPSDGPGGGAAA

`N#Cc1ccc2c(c1)Sc1ccccc1N2C1C[C@H]2CC[C@@H](C1)N2` (mixture of isomers) [Compound 1aa, 10-(8-Aza-bicyclo[3.2.1]oct-3-yl)-10H-phenothiazine-3-carbonitrile] had an inhibition constant (Ki) at delta opioid receptor of 931 nM.
With `Brc1ccc2c(c1)Sc1ccccc1N2C1C[C@H]2CC[C@@H](C1)N2` (mixture of isomers) [Compound 4i, 10-(8-Aza-bicyclo[3.2.1]oct-3-yl)-3-bromo-10H-phenothiazine], the Ki at mu opioid receptor was determined as 6610 nM; at delta opioid receptor, 881 nM.
For `c1cncc(-c2ccc3c(c2)Sc2ccccc2N3C2C[C@H]3CC[C@@H](C2)N3Cc2ccoc2)c1` (mixture of isomers) [Compound 6i, 10-(8-Furan-3-ylmethyl-8-aza-bicyclo[3.2.1]oct-3-yl)-3-pyridin-3-yl-10H-phenothiazine], in that order: 1060 nM and 282 nM.
For `CC(=O)Nc1ccccc1-c1ccc2c(c1)Sc1ccccc1N2C1C[C@H]2CC[C@@H](C1)N2Cc1ccoc1` (mixture of isomers) [Compound 7i, N-{2-[10-(8-Furan-3-ylmethyl-8-aza-bicyclo[3.2.1]oct-3-yl)-10H-phenothiazin-3-yl]-phenyl}-acetamide], in that order: 554 nM and 123 nM.
As to `CC(C)=CCN1[C@@H]2CC[C@H]1CC(N1c3ccccc3Sc3cc(-c4cccnc4)ccc31)C2` (mixture of isomers) [Compound 8i, 10-[8-(3-Methyl-but-2-enyl)-8-aza-bicyclo[3.2.1]oct-3-yl]-3-pyridin-3-yl-10H-phenothiazine], the Ki was 889 nM on mu opioid receptor and 444 nM at delta opioid receptor.
The matching figures for `c1ccc(CN2[C@@H]3CC[C@H]2CC(N2c4ccccc4Sc4cc(-c5cccnc5)ccc42)C3)nc1` (mixture of isomers) [Compound 9i, 3-Pyridin-3-yl-10-(8-pyridin-2-ylmethyl-8-aza-bicyclo[3.2.1]oct-3-yl)-10H-phenothiazine]: 538 nM and 649 nM.
Take `CC(C)=CCN1[C@@H]2CC[C@H]1CC(N1c3ccccc3Sc3cc(-c4ccncc4)ccc31)C2` (mixture of isomers) [Compound 10i, 10-[8-(3-Methyl-but-2-enyl)-8-aza-bicyclo[3.2.1]oct-3-yl]-3-pyridin-4-yl-10H-phenothiazine]: the figures for the inhibition constant Ki at mu opioid receptor and at delta opioid receptor were 317 nM and 949 nM, respectively.
The matching figures for `c1csc(CN2[C@@H]3CC[C@H]2CC(N2c4ccccc4Sc4cc(-c5ccncc5)ccc42)C3)c1` (mixture of isomers) [Compound 12i, 3-Pyridin-4-yl-10-(8-thiophen-2-ylmethyl-8-aza-bicyclo[3.2.1]oct-3-yl)-10H-phenothiazine]: 1450 nM and 491 nM.
The matching figures for `C=CCN1[C@@H]2CC[C@H]1CC(N1c3ccccc3Sc3cc(-c4ccccc4NC(C)=O)ccc31)C2` (mixture of isomers) [Compound 13i, N-{2-[10-(8-Allyl-8-aza-bicyclo[3.2.1]oct-3-yl)-10H-phenothiazin-3-yl]-phenyl}-acetamide]: 3740 nM and 552 nM.
For the compound `CC(=O)Nc1ccccc1-c1ccc2c(c1)Sc1ccccc1N2C1C[C@H]2CC[C@@H](C1)N2CCc1ccccc1` (mixture of isomers) [Compound 14i, N-{2-[10-(8-Phenethyl-8-aza-bicyclo[3.2.1]oct-3-yl)-10H-phenothiazin-3-yl]-phenyl}-acetamide], the Ki at mu opioid receptor was determined as 599 nM; on delta opioid receptor, 1600 nM.
In the case of `c1ccc2c(c1)Oc1cc(-c3ccncc3)ccc1N2[C@H]1C[C@H]2CC[C@@H](C1)N2` [Compound 2k, Endo-10-(8-Aza-bicyclo[3.2.1]oct-3-yl)-3-pyridin-4-yl-10H-phenoxazine], the affinity at delta opioid receptor, expressed as Ki, was 696 nM.
Same read-out and setting: for `c1ccc2c(c1)Oc1cc(-c3ccncc3)ccc1N2[C@@H]1C[C@H]2CC[C@@H](C1)N2` [Compound 2m, Exo-10-(8-Aza-bicyclo[3.2.1]oct-3-yl)-3-pyridin-4-yl-10H-phenoxazine] the value was 634 nM; for `c1ccc(CCN2[C@@H]3CC[C@H]2C[C@@H](N2c4ccccc4Oc4cc(-c5ccncc5)ccc42)C3)cc1` [Compound 3k, Endo-10-(8-Phenethyl-8-aza-bicyclo[3.2.1]oct-3-yl)-3-pyridin-4-yl-10H-phenoxazine], 3390 nM.
Still for that read-out and setting: for `c1cncc(-c2ccc3c(c2)Oc2ccccc2N3[C@@H]2C[C@H]3CC[C@@H](C2)N3)c1` [Compound 3l] the value was 729 nM.
The same measure, in the same setting: with `c1ccc(CCN2[C@@H]3CC[C@H]2C[C@H](N2c4ccccc4Oc4cc(-c5ccncc5)ccc42)C3)cc1` [Compound 3m, Exo-10-(8-Phenethyl-8-aza-bicyclo[3.2.1]oct-3-yl)-3-pyridin-4-yl-10H-phenoxazine] the figure was 480 nM.
For `CCN(CC)C(=O)c1ccc2c(c1)Oc1ccccc1N2[C@@H]1C[C@H]2CC[C@@H](C1)N2CCc1ccccc1` [Compound 3u, Exo-10-(8-Phenethyl-8-aza-bicyclo[3.2.1]oct-3-yl)-10H-phenoxazine-3-carboxylic acid diethylamide], the Ki at delta opioid receptor was determined as 1360 nM. Against the preceding compound, the Ki is about 2.8-fold higher.
The same measure, in the same setting: with `CC(=O)Nc1ccccc1-c1ccc2c(c1)Oc1ccccc1N2[C@H]1C[C@H]2CC[C@@H](C1)N2CCc1ccccc1` [Compound 3x, Endo-N-{2-[10-(8-Phenethyl-8-aza-bicyclo[3.2.1]oct-3-yl)-10H-phenoxazin-3-yl]-phenyl}-acetamide] the figure was 1590 nM; with `c1ccc(CN2[C@@H]3CC[C@H]2C[C@@H](N2c4ccccc4Oc4cc(-c5ccncc5)ccc42)C3)nc1` [Compound 4k, Endo-3-Pyridin-4-yl-10-(8-pyridin-2-ylmethyl-8-aza-bicyclo[3.2.1]oct-3-yl)-10H-phenoxazine], 445 nM.
Same read-out and setting: for `c1ccc(CCN2[C@@H]3CC[C@H]2C[C@H](N2c4ccccc4Oc4cc(-c5cccnc5)ccc42)C3)cc1` [Compound 4l, Exo-10-(8-Phenethyl-8-aza-bicyclo[3.2.1]oct-3-yl)-3-pyridin-3-yl-10H-phenoxazine] the value was 425 nM; for `c1ccc(CN2[C@@H]3CC[C@H]2C[C@H](N2c4ccccc4Oc4cc(-c5ccncc5)ccc42)C3)nc1` [Compound 4m, Exo-3-Pyridin-4-yl-10-(8-pyridin-2-ylmethyl-8-aza-bicyclo[3.2.1]oct-3-yl)-10H-phenoxazine], 869 nM.
As to `CC(=O)Nc1ccccc1-c1ccc2c(c1)Oc1ccccc1N2[C@H]1C[C@H]2CC[C@@H](C1)N2Cc1cccs1` [Compound 4x, Endo-N-{2-[10-(8-Thiophen-2-ylmethyl-8-aza-bicyclo[3.2.1]oct-3-yl)-10H-phenoxazin-3-yl]-phenyl}-acetamide], the Ki on delta opioid receptor was found to be 161 nM.
At delta opioid receptor, `c1cncc(-c2ccc3c(c2)Oc2ccccc2N3[C@H]2C[C@H]3CC[C@@H](C2)N3)c1` [Compound 5j, Endo-10-(8-Aza-bicyclo[3.2.1]oct-3-yl)-3-pyridin-3-yl-10H-phenoxazine] came in with a Ki of 409 nM.
Compound `c1ccc2c(c1)Oc1cc(-c3ccncc3)ccc1N2[C@H]1C[C@H]2CC[C@@H](C1)N2Cc1ccoc1` [Compound 5k, Endo-10-(8-Furan-3-ylmethyl-8-aza-bicyclo[3.2.1]oct-3-yl)-3-pyridin-4-yl-10H-phenoxazine] registered a Ki on delta opioid receptor of 247 nM. Compared with the last compound, the Ki is about 1.7-fold lower.
The same measure, in the same setting: for `c1ccc(CN2[C@@H]3CC[C@H]2C[C@H](N2c4ccccc4Oc4cc(-c5cccnc5)ccc42)C3)nc1` [Compound 5l, Exo-3-Pyridin-3-yl-10-(8-pyridin-2-ylmethyl-8-aza-bicyclo[3.2.1]oct-3-yl)-10H-phenoxazine] the value was 539 nM; for `c1ccc2c(c1)Oc1cc(-c3ccncc3)ccc1N2[C@@H]1C[C@H]2CC[C@@H](C1)N2Cc1ccoc1` [Compound 5m, Exo-10-(8-Furan-3-ylmethyl-8-aza-bicyclo[3.2.1]oct-3-yl)-3-pyridin-4-yl-10H-phenoxazine], 1280 nM.
On the same count and under the same terms, for `c1ccc(CCN2[C@@H]3CC[C@H]2C[C@@H](N2c4ccccc4Oc4cc(-c5cccnc5)ccc42)C3)cc1` [Compound 6j, Endo-10-(8-Phenethyl-8-aza-bicyclo[3.2.1]oct-3-yl)-3-pyridin-3-yl-10H-phenoxazine] the value was 3260 nM.
At delta opioid receptor, `c1csc(CN2[C@@H]3CC[C@H]2C[C@@H](N2c4ccccc4Oc4cc(-c5ccncc5)ccc42)C3)c1` [Compound 6k, Endo-3-Pyridin-4-yl-10-(8-thiophen-2-ylmethyl-8-aza-bicyclo[3.2.1]oct-3-yl)-10H-phenoxazine] showed a Ki of 14200 nM.
The compound `CCN(CC)C(=O)c1ccc2c(c1)Oc1ccccc1N2[C@H]1C[C@H]2CC[C@@H](C1)N2CCc1ccccc1` [Compound 6t, Endo-10-(8-Phenethyl-8-aza-bicyclo[3.2.1]oct-3-yl)-10H-phenoxazine-3-carboxylic acid diethylamide] yielded a Ki at delta opioid receptor of 231 nM.
Still for that read-out and setting: with `c1ccc(CN2[C@@H]3CC[C@H]2C[C@@H](N2c4ccccc4Oc4cc(-c5cccnc5)ccc42)C3)nc1` [Compound 7j, Endo-3-Pyridin-3-yl-10-(8-pyridin-2-ylmethyl-8-aza-bicyclo[3.2.1]oct-3-yl)-10H-phenoxazine] the figure was 104 nM; with `c1cncc(-c2ccc3c(c2)Oc2ccccc2N3[C@H]2C[C@H]3CC[C@@H](C2)N3Cc2cccs2)c1` [Compound 9j, Endo-3-Pyridin-3-yl-10-(8-thiophen-2-ylmethyl-8-aza-bicyclo[3.2.1]oct-3-yl)-10H-phenoxazine], 11900 nM.
For `Oc1cccc2c1Oc1cc(-c3ccncc3)ccc1N2[C@H]1C[C@H]2CC[C@@H](C1)N2CCc1ccccc1` [Compound 10v, Endo-10-(8-Phenethyl-8-aza-bicyclo[3.2.1]oct-3-yl)-7-pyridin-4-yl-10H-phenoxazin-4-ol], on delta opioid receptor, the Ki was > 10000 nM.
In the case of `COc1cccc2c1Oc1cc(-c3ccncc3)ccc1N2[C@H]1C[C@H]2CC[C@@H](C1)N2CCc1ccccc1` [Compound 13v, Endo-6-Methoxy-10-(8-phenethyl-8-aza-bicyclo[3.2.1]oct-3-yl)-3-pyridin-4-yl-10H-phenoxazine], the inhibition constant (Ki) on delta opioid receptor is > 10000 nM.

One may read the Ki as the equilibrium dissociation constant of an inhibitor or competing ligand from its target. Low values mean a stronger hold on the target, high ones a looser hold on the target.
